Source: patent publication US20170234881A1, “METHODS OF DIAGNOSING AND TREATING CANCER” (INSERM ( INSTITUT NATIONAL DE LA SANTÉ ET DE LA RECHERCHE …, priority 2014, published 2017)

Columns and labels:
TS/A tumors = experiment: Growth of TS/A tumors implanted s.c. into mice; assay type: in vivo; settings: after 13 days, s.c. every day, Tam 56 mg/kg or DDA 20 mg/kg alone
Description: FIG. 2. OCDO is a tumor promoter in vitro and in vivo and its inhibition contributes to the anti-tumor effects of Tam and DDA. (A, B) Histograms representing the effect of OCDO or 17β-estrogen (E2) on MCF7 (A) and TS/A (B) cell proliferation after 24 h treatment using a colorimetric immunoassay measuring BrDU incorporation in DNA (C, D) Histogram representing the effect of OCDO on MCF7 (C) and TS/A (D) cell invasion. Data are the mean of three separate experiments (±s.e.m), *P<0.05, **P<0.01, ***P<0.001 (Student's t-test). (E, F) Mice were implanted s.c. with MCF7 (E) or TS/A (F) cells and animals (8 per group) were treated s.c. every day starting on the day of implantation with either the solvent vehicle or OCDO (16 μg/kg for MCF7 or 50 μg/kg for TS/A). Animals were monitored for tumour growth twice a week. The data are representative of three independent experiments. The mean tumor volume±s.e.m is shown, *P<0.05, **P<0.01, ***P<0.001 (analysis of variance (ANOVA), Dunnett's post test). (G) Mean (±s.e.m) of Ki67 positive cell number determined from IHC staining of MCF7 tumor sections from (E), n=8, *P<0.05 (Student's t-test) using HistoQuant, Pannoramic Viewer (3DHistech). (H) Representative Ki67 staining of TS/A tumor sections from (F) showing increased staining in OCDO-treated tumor compared with control-treated tumor. (I, J, K). Murine E0771(I), or human MDA-MB231 (J) or MDA-MB468 (K) cells implanted s.c. into mice (8 per group) and animals were treated s.c. with either the solvent vehicle or OCDO (16 μg/kg for MDA-MB-231 and MDA-MB-468 or 50 μg/kg for E0771). The data are representative of two independent experiments. Statistical analysis was performed as in E and F. (L) Mice were implanted s.c. with TS/A cells and animals (8 per group) were treated s.c. every day with either the solvent vehicle, OCDO (50 μg/kg), Tam (56 mg/kg), DDA (20 mg/kg) or the combination of Tam (56 mg/kg) +OCDO (50 μg/kg) or DDA (20 mg/kg)+OCDO (50 μg/kg). The data are representative of three independent experiments. Statistical analysis was performed as in E and F.
Exponentially growing MCF7, ShMCF7, E0771, MDA-MB231, MDA-MB468 and TS/A cells were collected, washed twice in PBS and resuspended in PBS. TS/A and E9771 tumours were prepared by subcutaneous transplantation of 35×10^3 cells or 3×10^5 cells respectively in 100 μl PBS into the flank of BALB/c or C57B16 mice. For other tumors, 5 to 10×10^6 cells in 200 μl PBS/matrigel (1/1) were injected into the flank of NMRI nude mice. Animals were treated as indicated in the legends. Animals were examined daily, and body weights were measured twice per week. In all the experiments, the tumor volume was determined by direct measurement with a caliper and was calculated using the formula (width^2×length)/2. Tumors were either frozen in liquid nitrogen or fixed in 10% neutral-buffered formalin and embedded in paraffin for immunohistochemical analysis. Paraffin sections were stained with haematoxylin and eosin for histomorphological analyses. Immunohistochemical staining was done on paraffin-embedded tissue sections, using a specific Ki67 antibody (Dako).
We then assayed the anti-growth effect of Tam or DDA against TS/A tumors in the absence and presence of OCDO. As above, TS/A tumors implanted into immunocompetent mice were treated s.c. every day either with either the solvent vehicle (control), OCDO (50 μg/kg), Tam (56 mg/kg), DDA (20 mg/kg) or the combination of Tam (56 mg/kg)+OCDO (50 μg/kg) or DDA (20 mg/kg) +OCDO (50 μg/kg).

shHSD2 MCF7 cells = experiment: Proliferation of shHSD2 MCF7 cells (BrDU); assay type: cell-based, human; settings: sh11HSD2 MCF7 cells, 24 h; OCDO 5 μM; cortisone increasing concentrations
Description: FIG. 7. Knock-down of 11βHSD2 decreases cell proliferation, invasion and survival in MCF7 cells as well as tumor growth and OCDO reverses these effects. shC or shHSD2 MCF7 cells were analyzed as followed: (A) The proliferation of sh-C or shHSD2 cells treated or not with OCDO 5 μM 24 h was measured using quantification of DNA BrDU incorporation as described in FIG. 2A. (B) The proliferation of sh-C or shHSD2 cells treated or not with increasing concentration of cortisone for 24 h was measured as in (A). (C) The invasiveness of sh-C or shHSD2 cells treated or not with OCDO 5 μM for 72 h was assayed using matrigel-coated filters. (D) the formation of colony by sh-C or shHSD2 cells treated or not with OCDO 1 μM was quantified as described in FIG. 6F. […] Animals were monitored for tumor growth twice a week. […] (F) Mean (±s.e.m) of Ki67 positive cell number determined from IHC staining of shC or shHSD2 MCF7 tumor sections from (E), n=8, *P<0.05 (Student's t-test) using HistoQuant, Pannoramic Viewer (3DHistech).
MCF7 or HEK293T cells (5×10^6 cells) were transfected with 5 μg of the indicated plasmid using the NEON Transfection System and according to the manufacturer's recommendations. […] Several clones were analyzed by immunoblot analysis and real time RT-qPCR for the knock down of the expression of the protein of interest. […]

SMILES | inhibition of TS/A tumor growth compared with the control group (TS/A tumors) | effect on the inhibition of cell proliferation induced by 11βHSD2 knock-down (shHSD2 MCF7 cells)
CC(C)CCCC(C)[C@H]1CCC2C3C[C@@H](NCCc4cnc[nH]4)[C@@]4(O)C[C@@H](O)CC[C@]4(C)C3CC[C@@]21C (stereo partly drawn) [DDA, 5-hydroxy-6-[2-(1H-imidazol-4-yl)ethylamino]cholestan-3-ol, reference compound] | 33% | 
CC/C(=C(\c1ccccc1)c1ccc(OCCN(C)C)cc1)c1ccccc1 [Tam, (Z)-2-[4-(1,2-diphenylbut-1-enyl)phenoxy]-N,N-dimethylethanamine, reference compound] | 31% | 
C[C@]12CCC(=O)C=C1CC[C@@H]1[C@@H]2C(=O)C[C@@]2(C)[C@H]1CC[C@]2(O)C(=O)CO [cortisone, reference compound] |  | did not
